Data published in patent publication US8263056B2, “Dyed-hair-binding peptides and peptide-based hair reagents for personal care” (E I du Pont de Nemours and Company, priority 2007, dated 2012).
pEC50: −log10 of the molar value.

Settings: read-out: EC50 (concentration at which half the maximum binding was observed by measuring A405 nm), binding to dyed hair, ELISA-type assay
Source text: Each selection round was monitored for enrichment of phage displaying dyed-hair-binding peptides using ELISA-like assays in the deep well plates performed using an anti-M13 phage antibody conjugated to horseradish-peroxidase, followed by the addition of a chromogenic agent ABTS (2,2′-azino-bis(3-ethylbenzthiazoline-6-sulphonic acid)). The plates were read at 405 nm.
Relative binding strengths of the phage can also be determined by testing serial dilutions of the phage for binding to dyed hair in an ELISA. For example, serial dilutions of the display-selected clones were exposed to dyed hair in an ELISA. […] Primers against the phage vector sequence (available from New England BIOLABS®) that flank the insertion site were used to determine the DNA sequence encoding the peptide for the phage in each group. […] The DNA sequences encoding dyed-hair-binding peptides isolated were determined. Peptides Dye-1 through Dye-16 were those sequenced after round 4 of selection. Peptides Dye 17 through Dye-28 were those isolated and sequenced after a fifth round of selection.
The ELISA-type assay described in Example 1 was used to evaluate the affinity of dyed-hair-binding peptides for dyed hair. All of the synthesize peptides in Table 2 were evaluated for their ability to bind to dyed hair versus two negative controls (a non-selected peptide and a blank (no peptide)).
The EC50 values (the concentration at which half the maximum binding was observed by measuring A405 nm) were deduced and given in Table 3.
With “LLSDFHYGDMWDASR-GSSGK (biotin) [Aff15016]” the pEC50 was roughly 6.00. In the case of NYNYNYNYQYSSR-GSSGK (biotin) [Aff15011], the pEC50 was less than 5.00. QYYQDYQYYHSSR-GSSK (biotin) [Aff15029] showed a pEC50 of roughly 6.00. Substance “SSNDSNVSWFHYYASGLTSSR-GSSG-SRKSSQKNPHHPKPPKKPTAR-GSSGK (biotin) [Aff15025]” has a pEC50 of roughly 7.60. “SSNDSNVSWFHYYASGLTSSR-GSSGK-(biotin) [Aff15013]” gave a pEC50 of roughly 6.00. In the case of YHYDYDHYYESSR-GSSGK (biotin) [Aff15030], the pEC50 was roughly 6.00. Work on YYYDYYQQDYSSR-GSSGK (biotin) [Aff15027] yielded a pEC50 of roughly 6.00.
